The text below walks through data of patent publication US11273153B2, “MAPK inhibitors” (EverBrilliant Pharma Pty Ltd, priority 2014, dated 2022).

Data set [1] is described as follows: In vitro metabolic stability, mouse liver microsomes. The data set is classed as in vitro ADME. On the procedure:
(§1) The metabolic stability of compounds 4.1 and 4.5 was assayed in an in vitro assay which employed liver microsomes. Liver microsomes are valuable models for the determination of hepatic clearance because they contain a number of drug metabolising enzymes, such as the CYP450 enzymes. An in vitro metabolic stability study was conducted using human, rat and mouse liver microsomes as a prediction of the in vivo metabolic clearance. […] From the results, the rates of apparent compound degradation in human, rat and mouse liver microsomes were in agreement with the moderate to high microsome-predicted extraction ratios (EH) for both compounds 4.1 and 4.5.

The test system of data set [2] is neonatal rat cardiac fibroblasts (NCF). The experiment in a line: Neonatal rat cardiac fibroblast collagen synthesis (3H-proline incorporation). The data set is classed as cell-based. Particulars: AngII 100 nM stimulus. On the procedure: The effect of the compounds on neonatal rat cardiac fibroblasts (NCF) collagen synthesis was determined by measuring ^3H-proline incorporation following a published protocol using AngII (100 nM) as the stimulus. ^3H-proline incorporation was determined in the same way as the cardiac myocyte hypertrophy assay described above.

Data set [3] deals with active phosphorylated p38α MAPK (Homo sapiens (Human), UniProt Q16539). The data set can be described thus: Fluorescence polarisation (FP) binding assay, active enzyme.
Data set [4] in a line: In vitro metabolic stability, human liver microsomes. Format: in vitro ADME. On the procedure:
as §1

Data set [5] can be described thus: In vitro metabolic stability, rat liver microsomes. The data set is classed as in vitro ADME. The protocol: as §1
Data set [6] concerns neonatal rat cardiac fibroblasts (NCF). The experiment in a line: NCF cell viability (MTT assay). The data set is classed as cell-based. Particulars: 10 μM concentration. On the procedure:
Measurement of NCF cell viability was carried out using a published method with the 3-(4,5-dimethylthiazol-2-yl)-2,5-diphenyltetraxolium bromide (MTT) assay.

The subject of data set [7] is IL-6 gene expression in monocytic (THP-1) cells. The data set can be described thus: LPS-induced IL-6 gene expression in THP-1 cells. Format: cell-based. Conditions: LPS-stimulated THP-1 cells. On the procedure: Certain of the compounds were tested in a cellular assay for suppression of TNF-α and IL-6 gene expression in monocytic (THP-1) cells and the assay results are depicted in FIGS. 2 and 3. A published method was used whereby treating THP-1 cells with LPS induces TNF-α and IL-6 gene expression.

The target in data set [8] is inactive non-phosphorylated p38α MAPK (Homo sapiens (Human), UniProt Q16539). The data set can be described thus: Fluorescence polarisation (FP) binding assay, inactive enzyme.
The test system of data set [9] is neonatal rat cardiac myocytes (NCM). The data set can be described thus: Neonatal rat cardiac myocyte hypertrophy (3H-leucine incorporation). The data set is classed as cell-based. The protocol: Neonatal rat cardiac myocyte (NCM) hypertrophy was determined by ^3H-leucine incorporation following a published protocol on the above synthesised compounds using either Angiotensin II (AngII, 100 nM) or TNF-α (10 ng/mL) as the stimulus. ^3H levels were counted in scintillation fluid on a beta counter to determine levels of ^3H-leucine incorporation.

In another data set the target is p38α MAPK (Homo sapiens (Human), UniProt Q16539). The experiment in a line: Radioactive (33P-labelled ATP) filter binding assay of p38α MAPK activity. Format: biochemical. The protocol:
A number of compounds were also assessed for the inhibition of p38α MAPK activity (www.kinase-screen.mrc.ac.uk) in which a radioactive (^33P-labelled ATP) filter binding assay was used to directly measure phosphate incorporation. Table 1 summarises the binding affinities of the synthesised compounds to both forms of the enzyme as well as the inhibitory activities against p38α MAPK. By way of enabling a comparison with a non-thiophene compound the biological testing was also carried out for known inhibitor RWJ67657, shown in table 1.

[10] abbreviates: NADPH-dependent, read-out: Apparent Degradation half-life.
[11] abbreviates: read-out: In vitro CLint (μL/min/mg protein).

Like-named read-outs stand apart in the source and are kept apart here.

Chain of active phosphorylated p38α MAPK (Q16539 whole entry): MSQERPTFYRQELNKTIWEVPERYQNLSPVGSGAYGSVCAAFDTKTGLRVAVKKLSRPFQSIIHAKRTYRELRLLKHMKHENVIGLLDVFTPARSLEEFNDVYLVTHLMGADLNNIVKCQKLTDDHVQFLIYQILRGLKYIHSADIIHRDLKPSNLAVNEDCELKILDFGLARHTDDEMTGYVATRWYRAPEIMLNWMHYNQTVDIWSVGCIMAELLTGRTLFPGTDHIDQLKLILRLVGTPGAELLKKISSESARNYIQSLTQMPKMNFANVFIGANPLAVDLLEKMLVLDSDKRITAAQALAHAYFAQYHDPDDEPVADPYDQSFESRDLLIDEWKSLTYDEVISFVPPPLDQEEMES
Chain of inactive non-phosphorylated p38α MAPK (Q16539 whole entry): as above
Chain of p38α MAPK (Q16539 whole entry): as above

Regarding `OCCC#Cc1sc(-c2ccc(F)cc2)c(-c2ccncc2)c1CCCc1ccccc1` [Compound 4.1, 4-(5-(4-Fluorophenyl)-3-(3-phenylpropyl)-4-(pyridin-4-yl)thiophen-2-yl)but-3-yn-1-ol], the figures for the “Microsome predicted EH” value in [1], in [4] and in data set [5] were around 0.94, 0.92 and around 0.91, respectively. The half-life is around 5 min in data set [1] (setting [10]), 8 min in data set [4] (setting [10]) and around 5 min in [5] (setting [10]). Besides, the microsomal CLint is around 342 µL/min/mg in [1] (setting [11]), 219 µL/min/mg in [4] (setting [11]) and around 319 µL/min/mg in data set [5] (setting [11]). Besides, the “inhibition of AngII-stimulated NCF collagen synthesis” value in data set [2] is “did not suppress AngII-induced NCF collagen synthesis at 1 μM concentration”. Besides, the Ki came out at 0.6 ± 0.1 µM in data set [3] (Table 1, read-out: Ki (μM, mean ± SEM) active p38α); 0.6 ± 0.1 µM in data set [3] (Table 6, read-out: Ki ± SEM (μM) to active p38α); 2.3 ± 0.2 µM in [8] (Table 1, read-out: Ki (μM, mean ± SEM) inactive p38α); 2.3 ± 0.2 µM in data set [8] (Table 6, read-out: Ki ± SEM (μM) to inactive p38α). Moreover, in [6], the NCF cell viability entry is recorded as “no affect on NCF cell viability”. For the same compound, in data set [7], the “inhibition of LPS-induced IL-6 gene expression” value was “strong inhibition”. Further, in data set [9] (AngII 100 nM stimulus), the “suppression of AngII-induced NCM hypertrophy” value is “suppression of NCM hypertrophy”. The “suppression of TNF-α-induced NCM hypertrophy” value in [9] (TNF-α 10 ng/mL stimulus) is on record as “suppression of NCM hypertrophy”. The IC50 stood at 0.18 µM on p38α MAPK (Table 1, average of two experiments, read-out: IC50 (μM, mean)) and 0.18 µM at p38α MAPK (Table 6, read-out: IC50 (mean)).
